Earlier results as cited in patent US10124030B2, “Skincare preparations” (KARYNG, LLC, priority 2016, dated 2018).

Tested on: epidermal SIRT1 protein expression
Conditions: 0.02% vs untreated with UVB; UVB 0.2 J/cm^2

## Oc1ccc(C=Cc2cc(O)cc(O)c2)cc1 [Resveratrol]
  modulation of epidermal SIRT1 protein expression: −22%
